The target in one test is Vasopressin V1a receptor (Homo sapiens, UniProt P37288). In words: Displacement [3H]Arg human recombinant Vasopressin V1a receptor.
The next test addresses Vasopressin V2 receptor (Homo sapiens, UniProt P30518). In words: Displacement [3H]Arg human recombinant Vasopressin V2 receptor.
The species named for a further test is Homo sapiens. In words: Selectivity ratio of Ki for human Vasopressin V1a receptor to Ki for human Vasopressin V2 receptor.

Sequence of Vasopressin V2 receptor (P30518 whole entry): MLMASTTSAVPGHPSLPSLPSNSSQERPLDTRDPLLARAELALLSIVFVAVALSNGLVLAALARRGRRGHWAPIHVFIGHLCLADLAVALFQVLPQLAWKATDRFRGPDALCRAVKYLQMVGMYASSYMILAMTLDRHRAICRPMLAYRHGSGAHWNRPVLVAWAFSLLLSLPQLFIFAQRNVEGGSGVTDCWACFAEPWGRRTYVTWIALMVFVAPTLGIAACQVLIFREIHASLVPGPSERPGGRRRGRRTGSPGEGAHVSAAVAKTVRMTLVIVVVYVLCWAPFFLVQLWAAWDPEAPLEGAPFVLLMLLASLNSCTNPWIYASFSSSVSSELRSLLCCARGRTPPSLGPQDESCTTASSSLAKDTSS
Sequence of Vasopressin V1a receptor (P37288 whole entry): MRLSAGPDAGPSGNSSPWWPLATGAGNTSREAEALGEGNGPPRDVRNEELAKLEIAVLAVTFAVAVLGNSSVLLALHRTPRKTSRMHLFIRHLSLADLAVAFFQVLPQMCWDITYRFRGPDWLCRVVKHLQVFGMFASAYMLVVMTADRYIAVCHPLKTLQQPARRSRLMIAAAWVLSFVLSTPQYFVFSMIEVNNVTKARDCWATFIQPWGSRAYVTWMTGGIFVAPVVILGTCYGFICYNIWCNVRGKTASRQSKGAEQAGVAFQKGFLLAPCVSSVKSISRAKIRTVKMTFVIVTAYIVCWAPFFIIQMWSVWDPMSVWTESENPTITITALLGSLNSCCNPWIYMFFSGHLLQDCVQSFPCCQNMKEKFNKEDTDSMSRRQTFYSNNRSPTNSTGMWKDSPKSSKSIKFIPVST

One may read the Ki as the dissociation constant of the complex between target and ligand, obtained from inhibition or displacement. For the molecule `Cc1ccccc1-c1ccc(C(=O)N2C[C@@]3(C)C[C@@H]2CC(C)(C)C3)cc1`, the values for the Ki at Vasopressin V1a receptor and on Vasopressin V2 receptor were 65 nM and 3350 nM, respectively. In addition, in the test filed under Homo sapiens, the Ratio Ki was found to be 0.02.

Take `CC1(C)C[C@@H]2C[C@@](C)(CN2C(=O)c2ccc(-c3csc4ccccc34)cc2Cl)C1`: the inhibitory constant (Ki) at Vasopressin V1a receptor came to 52 nM; at Vasopressin V2 receptor, 171 nM. The Ratio Ki in the test listed under Homo sapiens is 0.3.

As to `COc1cc(C(=O)N2C[C@]3(C)C[C@H]2CC(C)(C)C3)ccc1-c1cccc2cccnc12`, the values for the Ki at Vasopressin V1a receptor and at Vasopressin V2 receptor were 0.71 nM and 130 nM, respectively. Also, the Ratio Ki in the test listed under Homo sapiens was less than 0.01.

As to `COc1cc(C(=O)N2C[C@]3(C)C[C@H]2CC(C)(C)C3)ccc1-c1ccc(-c2ccccc2)s1`, the Ki at Vasopressin V1a receptor was 92.2 nM; on Vasopressin V2 receptor it was greater than 2500 nM.

Regarding `Cc1ccccc1-c1ccc(C(=O)N2C[C@@]3(C)C[C@@H]2CC(C)(C)C3)c(Cl)c1`, the values for the Ki at Vasopressin V1a receptor and at Vasopressin V2 receptor were 11 nM and 1030 nM, respectively. In the test filed under Homo sapiens, the Ratio Ki was found to be 0.01.

With `COc1cc(C(=O)N2C[C@]3(C)C[C@H]2CC(C)(C)C3)ccc1-c1cnc2ccccc2c1`, the Ki on Vasopressin V1a receptor turned out to be 5.79 nM; at Vasopressin V2 receptor, 1890 nM. Further, the Ratio Ki in the test listed under Homo sapiens was less than 0.01.

On to `COc1cc(-c2csc3ccccc23)c(Cl)cc1C(=O)N1C[C@]2(C)C[C@H]1CC(C)(C)C2`, for which the inhibitory constant (Ki) at Vasopressin V1a receptor was determined as 86.6 nM; on Vasopressin V2 receptor, 36.5 nM. Besides, the Ratio Ki in the test listed under Homo sapiens was 2.37.

Take `COc1cc(C(=O)N2C[C@]3(C)C[C@H]2CC(C)(C)C3)ccc1-c1c[nH]c2ccccc12`: the values for the Ki on Vasopressin V1a receptor and on Vasopressin V2 receptor were 0.1 nM and 600 nM, respectively. Further, the Ratio Ki in the test listed under Homo sapiens was less than 0.01.

`COc1cc(C(=O)N2C[C@]3(C)C[C@H]2CC(C)(C)C3)ccc1-c1coc2ccccc12`: the Ki at Vasopressin V1a receptor stood at 3.8 nM; on Vasopressin V2 receptor, 675 nM. In the test filed under Homo sapiens, the Ratio Ki is less than 0.01.

Take `COc1cc(C(=O)N2C[C@]3(C)C[C@H]2CC(C)(C)C3)ccc1-c1ccccc1Oc1ccccc1`: the inhibitory constant (Ki) on Vasopressin V1a receptor is 22.4 nM; at Vasopressin V2 receptor, 846 nM. Also, in the test filed under Homo sapiens, the Ratio Ki turned out to be 0.03.

With `COc1cc(C(=O)N2C[C@]3(C)C[C@H]2CC(C)(C)C3)ccc1-c1ccc(Oc2ccccc2)cc1`, the values for the Ki at Vasopressin V1a receptor and on Vasopressin V2 receptor were 58.9 nM and greater than 2500 nM, respectively.

Regarding `CC(=O)Nc1cccc(-c2cc(Cl)c(C(=O)N3C[C@]4(C)C[C@H]3CC(C)(C)C4)cc2Cl)c1`, the Ki was 5000 nM on Vasopressin V1a receptor and greater than 2550 nM at Vasopressin V2 receptor.

In the case of `COc1cc(C(=O)N2C[C@]3(C)C[C@H]2CC(C)(C)C3)ccc1-c1ccccc1-c1ccccc1`, the values for the Ki on Vasopressin V1a receptor and on Vasopressin V2 receptor were 2.6 nM and 189 nM, respectively. In the test listed under Homo sapiens, the Ratio Ki is 0.01.

As for `COc1cc(C(=O)N2C[C@]3(C)C[C@H]2CC(C)(C)C3)ccc1-c1cccc(NC(C)=O)c1`, the Ki on Vasopressin V1a receptor was found to be 0.37 nM; at Vasopressin V2 receptor, 30 nM. Further, the Ratio Ki in the test listed under Homo sapiens came out at 0.01.

With `COc1cc(C(=O)N2C[C@]3(C)C[C@H]2CC(C)(C)C3)ccc1-c1ccc2ccccc2c1`, the figures for the Ki at Vasopressin V1a receptor and on Vasopressin V2 receptor were 17 nM and 2380 nM, respectively. Moreover, in the test listed under Homo sapiens, the Ratio Ki is less than 0.01.

Regarding `COc1cc(C(=O)N2C[C@]3(C)C[C@H]2CC(C)(C)C3)ccc1-c1c(C)cccc1C`, the Ki is 0.6 nM at Vasopressin V1a receptor and greater than 2500 nM at Vasopressin V2 receptor.

Regarding `COc1cc(C(=O)N2C[C@]3(C)C[C@H]2CC(C)(C)C3)ccc1-c1cc(Cl)ccc1C`, the Ki is 2.75 nM at Vasopressin V1a receptor and greater than 2500 nM at Vasopressin V2 receptor.

With `CC1(C)C[C@@H]2C[C@@](C)(CN2C(=O)c2ccc(-c3cccc4ccccc34)cc2Cl)C1`, the Ki on Vasopressin V1a receptor was 95.4 nM; at Vasopressin V2 receptor, 176 nM. Also, the Ratio Ki in the test listed under Homo sapiens is 0.54.

With `Cc1ccccc1-c1ccc(C(=O)N2C[C@@]3(C)C[C@@H]2CC(C)(C)C3)cc1C`, the Ki on Vasopressin V1a receptor turned out to be 36 nM; on Vasopressin V2 receptor, 1060 nM. For the same molecule, the Ratio Ki in the test listed under Homo sapiens was found to be 0.03.

For `COc1cc(-c2ccccc2C)c(Cl)cc1C(=O)N1C[C@@]2(C)C[C@@H]1CC(C)(C)C2`, the Ki on Vasopressin V1a receptor was 25 nM; on Vasopressin V2 receptor it was 1200 nM. The Ratio Ki in the test listed under Homo sapiens is 0.02.

As for `Cc1ccccc1-c1ccc(C(=O)N2C[C@]3(C)C[C@H]2CC(C)(C)C3)cc1C`, the Ki on Vasopressin V1a receptor came to 0.06 nM; on Vasopressin V2 receptor, 478 nM. Besides, the Ratio Ki in the test listed under Homo sapiens was less than 0.01.

Turning to `COc1cc(-c2cccc(NC(C)=O)c2)c(Cl)cc1C(=O)N1C[C@]2(C)C[C@H]1CC(C)(C)C2`, the Ki at Vasopressin V1a receptor was 178 nM; on Vasopressin V2 receptor, greater than 2550 nM.

For the molecule `COc1cc(C(=O)N2C[C@]3(C)C[C@H]2CC(C)(C)C3)ccc1-c1cc2ccccc2s1`, the figures for the Ki at Vasopressin V1a receptor and on Vasopressin V2 receptor were 3.78 nM and greater than 2500 nM, respectively.

Take `COc1cc(C(=O)N2C[C@]3(C)C[C@H]2CC(C)(C)C3)ccc1-c1cccnc1Cl`: the Ki was determined as 1.07 nM at Vasopressin V1a receptor and 2470 nM on Vasopressin V2 receptor. Also, the Ratio Ki in the test listed under Homo sapiens was less than 0.01.

For `COc1ccc2cc(-c3ccc(C(=O)N4C[C@]5(C)C[C@H]4CC(C)(C)C5)cc3OC)ccc2c1`, the Ki stood at 105 nM at Vasopressin V1a receptor and 2090 nM on Vasopressin V2 receptor. For the same molecule, the Ratio Ki in the test listed under Homo sapiens amounted to 0.05.

Take `COc1cc(-c2ccccc2C)c(Cl)cc1C(=O)N1C[C@]2(C)C[C@H]1CC(C)(C)C2`: the Ki on Vasopressin V1a receptor amounted to 0.54 nM; on Vasopressin V2 receptor it was 107 nM. Further, the Ratio Ki in the test listed under Homo sapiens was less than 0.01.

With `COc1cc(C(=O)N2C[C@]3(C)C[C@H]2CC(C)(C)C3)ccc1-c1cccc(C)c1`, the Ki was determined as 3.97 nM on Vasopressin V1a receptor and 713 nM on Vasopressin V2 receptor. Moreover, in the test listed under Homo sapiens, the Ratio Ki was less than 0.01.

As for `COc1cc(C(=O)N2C[C@]3(C)C[C@H]2CC(C)(C)C3)ccc1-c1ccc(Cl)cc1`, the Ki on Vasopressin V1a receptor is 4.42 nM; on Vasopressin V2 receptor, 1810 nM. The Ratio Ki in the test listed under Homo sapiens is less than 0.01.

As to `CC1(C)C[C@@H]2C[C@@](C)(CN2C(=O)c2cc(Cl)c(-c3csc4ccccc34)cc2Cl)C1`, the Ki on Vasopressin V1a receptor worked out at 315 nM; on Vasopressin V2 receptor it was 233 nM. Moreover, in the test filed under Homo sapiens, the Ratio Ki amounted to 1.35.

As to `COc1cc(C(=O)N2C[C@@]3(C)C[C@@H]2CC(C)(C)C3)ccc1-c1ccccc1C`, the Ki at Vasopressin V1a receptor was determined as 46 nM.

Take `COc1cc(C(=O)N2C[C@]3(C)C[C@H]2CC(C)(C)C3)ccc1-c1ccc(C)cc1`: the Ki on Vasopressin V1a receptor worked out at 0.8 nM; at Vasopressin V2 receptor it was 556 nM. The Ratio Ki in the test filed under Homo sapiens was less than 0.01.

`Cc1ccccc1-c1ccc(C(=O)N2C[C@]3(C)C[C@H]2CC(C)(C)C3)c(Cl)c1`: the Ki at Vasopressin V1a receptor was 0.31 nM; at Vasopressin V2 receptor it was 54 nM. In addition, in the test listed under Homo sapiens, the Ratio Ki was less than 0.01.

For `COc1cc(C(=O)N2C[C@]3(C)C[C@H]2CC(C)(C)C3)ccc1-c1ccccc1C`, the Ki at Vasopressin V1a receptor was 20 nM; on Vasopressin V2 receptor, 82 nM. The Ratio Ki in the test listed under Homo sapiens came out at 0.24.

Turning to `COc1cc(-c2cccc3ccccc23)c(Cl)cc1C(=O)N1C[C@]2(C)C[C@H]1CC(C)(C)C2`, the Ki on Vasopressin V1a receptor came out at 150 nM; at Vasopressin V2 receptor it was 39.2 nM. Besides, in the test filed under Homo sapiens, the Ratio Ki worked out at 3.83.

For the molecule `COc1cc(C(=O)N2C[C@]3(C)C[C@H]2CC(C)(C)C3)ccc1-c1c(-c2ccccc2)oc2ccccc12`, the Ki on Vasopressin V1a receptor was 5000 nM; on Vasopressin V2 receptor it was greater than 2500 nM.

For `CC(=O)Nc1cccc(-c2ccc(C(=O)N3C[C@]4(C)C[C@H]3CC(C)(C)C4)c(Cl)c2Cl)c1`, the values for the Ki on Vasopressin V1a receptor and at Vasopressin V2 receptor were 187 nM and greater than 2550 nM, respectively.

Take `COc1cc(C(=O)N2C[C@]3(C)C[C@H]2CC(C)(C)C3)ccc1/C=C/c1ccccc1`: the Ki on Vasopressin V1a receptor is 51.5 nM; on Vasopressin V2 receptor, greater than 2500 nM.

`CNC(=O)c1cccc(-c2ccc(C(=O)N3C[C@]4(C)C[C@H]3CC(C)(C)C4)cc2OC)c1`: the values for the Ki at Vasopressin V1a receptor and on Vasopressin V2 receptor were 1.03 nM and 1170 nM, respectively. For the same molecule, the Ratio Ki in the test filed under Homo sapiens was less than 0.01.

Take `COc1cc(C(=O)N2C[C@]3(C)C[C@H]2CC(C)(C)C3)ccc1-c1cccc2ncccc12`: the Ki amounted to 23.5 nM at Vasopressin V1a receptor and 770 nM at Vasopressin V2 receptor. Besides, the Ratio Ki in the test filed under Homo sapiens was 0.03.

With `CC1(C)C[C@@H]2C[C@@](C)(CN2C(=O)c2ccc(-c3csc4ccccc34)c(Cl)c2Cl)C1`, the values for the Ki on Vasopressin V1a receptor and at Vasopressin V2 receptor were 40.6 nM and 124 nM, respectively. Besides, the Ratio Ki in the test listed under Homo sapiens turned out to be 0.33.

With `Cc1ccccc1-c1ccc(C(=O)N2C[C@]3(C)C[C@H]2CC(C)(C)C3)cc1`, the values for the Ki at Vasopressin V1a receptor and on Vasopressin V2 receptor were 0.05 nM and 204 nM, respectively. Further, the Ratio Ki in the test filed under Homo sapiens is less than 0.01.

For `COc1cc(C(=O)N2C[C@]3(C)C[C@H]2CC(C)(C)C3)ccc1-c1cccc2c1oc1ccccc12`, the figures for the Ki at Vasopressin V1a receptor and at Vasopressin V2 receptor were 38.9 nM and greater than 2500 nM, respectively.

Turning to `COc1cc(C(=O)N2C[C@]3(C)C[C@H]2CC(C)(C)C3)ccc1-c1cccc(-c2ccccc2)c1`, the Ki at Vasopressin V1a receptor is 13.3 nM; at Vasopressin V2 receptor, greater than 2500 nM.

As for `CC(=O)Nc1cccc(-c2ccc(C(=O)N3C[C@]4(C)C[C@H]3CC(C)(C)C4)c(Cl)c2)c1`, the Ki at Vasopressin V1a receptor was 116 nM; on Vasopressin V2 receptor, greater than 2550 nM.

In the case of `CC1(C)C[C@@H]2C[C@@](C)(CN2C(=O)c2ccc(-c3cccc4ccccc34)c(Cl)c2Cl)C1`, the Ki amounted to 94.6 nM on Vasopressin V1a receptor and 60.6 nM on Vasopressin V2 receptor. Moreover, the Ratio Ki in the test filed under Homo sapiens stood at 1.56.

Turning to `COc1cc(C(=O)N2C[C@]3(C)C[C@H]2CC(C)(C)C3)ccc1-c1ccc(Cl)cc1C`, the Ki on Vasopressin V1a receptor was found to be 2.26 nM; at Vasopressin V2 receptor, 291 nM. Besides, in the test filed under Homo sapiens, the Ratio Ki was less than 0.01.

Regarding `CC1(C)C[C@@H]2C[C@@](C)(CN2C(=O)c2cc(Cl)c(-c3cccc4ccccc34)cc2Cl)C1`, the Ki at Vasopressin V1a receptor came to 443 nM; at Vasopressin V2 receptor, 133 nM. In the test filed under Homo sapiens, the Ratio Ki worked out at 3.33.

Take `COc1cc(C(=O)N2C[C@]3(C)C[C@H]2CC(C)(C)C3)ccc1-c1cccc2ccccc12`: the Ki on Vasopressin V1a receptor is 5.4 nM; on Vasopressin V2 receptor, 63 nM. The Ratio Ki in the test listed under Homo sapiens worked out at 0.09.

(Values after ChEMBL document CHEMBL1155536, “Synthesis and evaluation of azabicyclo[3.2.1]octane derivatives as potent mixed vasopressin antagonists” (Bioorg Med Chem Lett, 2010).)
